Measurements published in ChEMBL document CHEMBL1201862, “PubChem BioAssay data set” (2004).
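Grown in 96-well plates, cells were treated for 48 hours with each compound at five concentrations. Insufficient inhibition: endpoint recorded as highest concentration tested. GI50 = concentration required for 50% inhibition of growth.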 Calls of active or inactive are those of the source. No stated cut-off is given here; in the data, active = GI50 up to about 1.1 µM and inactive = higher.

Key:
Test in all cases: NCI-60 cell line screen, 48 h
[1] = tested on: SK-OV-3
[2] = tested on: HCT-15
[3] = tested on: MDA-N
[4] = tested on: A498
[5] = tested on: HT-29
[6] = tested on: OVCAR-8
[7] = tested on: RPMI-8226
[8] = tested on: SN12C
[9] = tested on: KM12
[10] = tested on: PC-3
[11] = tested on: MDA-MB-231
[12] = tested on: M14
[13] = tested on: MDA-MB-435
[14] = tested on: NCI-H522
[15] = tested on: DU-145
[16] = tested on: ACHN
[17] = tested on: OVCAR-3
[18] = tested on: OVCAR-4
[19] = tested on: SF-295
[20] = tested on: LOX IMVI
[21] = tested on: HOP-62
[22] = tested on: HL-60
[23] = tested on: SW-620
[24] = tested on: TK-10
[25] = tested on: Hs-578T
[26] = tested on: MOLT-4
[27] = tested on: Malme-3M
[28] = tested on: SF-268
[29] = tested on: UO-31
[30] = tested on: IGROV-1
[31] = tested on: COLO 205
[32] = tested on: BT-549
[33] = tested on: SNB-75
[34] = tested on: CAKI-1
[35] = tested on: U-251
[36] = tested on: SK-MEL-2
[37] = tested on: HCT-116
[38] = tested on: RXF 393
[39] = tested on: K562
[40] = tested on: SK-MEL-28
[41] = tested on: SK-MEL-5
[42] = tested on: UACC-257
[43] = tested on: NCI/ADR-RES
[44] = tested on: CCRF-CEM
[45] = tested on: NCI-H226
[46] = tested on: A549
[47] = tested on: EKVX
[48] = tested on: SNB-19
[49] = tested on: 786-0
[50] = tested on: UACC-62
[51] = tested on: NCI-H460
[52] = tested on: NCI-H23
[53] = tested on: OVCAR-5
[54] = tested on: HCC 2998
[55] = tested on: HOP-92
[56] = tested on: MCF7
[57] = tested on: SF-539
[58] = tested on: SR
[59] = tested on: T47D

In the case of c1ccc(C2CC(NC3CCCCC3)=Nc3ccccc3N2)cc1 (stereo not given), the GI50 [1] is reported as > 100 µM (inactive), the GI50 [2] is reported as 94.2 µM and the GI50 [3] is reported as 75.9 µM (inactive). For the same molecule, the GI50 [4] was 18.8 µM (inactive), the GI50 [5] was 24.2 µM (inactive) and the GI50 [6] was > 100 µM (inactive). The GI50 [7] was 34 µM (inactive), the GI50 [8] was > 100 µM (inactive) and the GI50 [9] was 40.8 µM (inactive). For the same molecule, the GI50 [10] was 33.6 µM (inactive), the GI50 [11] was 24.5 µM (inactive) and the GI50 [12] was 27.4 µM (inactive). The GI50 [13] was 24.3 µM (inactive), the GI50 [14] was 22.8 µM (inactive) and the GI50 [15] was > 100 µM (inactive). For the same molecule, the GI50 [16] was > 100 µM (inactive), the GI50 [17] was > 100 µM (inactive) and the GI50 [18] was > 100 µM (inactive). The GI50 [19] was 44 µM (inactive), the GI50 [20] was 20.4 µM (inactive) and the GI50 [21] was > 100 µM (inactive). For the same molecule, the GI50 [22] was 25.8 µM (inactive), the GI50 [23] was > 100 µM (inactive) and the GI50 [24] was > 100 µM (inactive). For the same molecule, the GI50 [25] was 28.4 µM (inactive), the GI50 [26] was 17.7 µM (inactive) and the GI50 [27] was 15.6 µM (inactive). The GI50 [28] was 65.3 µM (inactive), the GI50 [29] was > 100 µM (inactive) and the GI50 [30] was 27.7 µM (inactive). For the same molecule, the GI50 [31] was 24.2 µM (inactive), the GI50 [32] was 54.8 µM (inactive) and the GI50 [33] was 16.4 µM (inactive). The GI50 [34] was 98.9 µM (inactive), the GI50 [35] was 56.9 µM (inactive) and the GI50 [36] was > 100 µM (inactive). For the same molecule, the GI50 [37] was 73.5 µM (inactive), the GI50 [38] was 31.7 µM (inactive) and the GI50 [39] was 19.3 µM (inactive). The GI50 [40] was 45.2 µM (inactive), the GI50 [41] was 18.7 µM (inactive) and the GI50 [42] was 47.5 µM (inactive). For the same molecule, the GI50 [43] was > 100 µM (inactive), the GI50 [44] was 34.9 µM (inactive) and the GI50 [45] was > 100 µM (inactive). For the same molecule, the GI50 [46] was > 100 µM (inactive), the GI50 [47] was 54.8 µM (inactive) and the GI50 [48] was > 100 µM (inactive). For the same molecule, the GI50 [49] was > 100 µM (inactive), the GI50 [50] was 31.2 µM (inactive) and the GI50 [51] was 46.9 µM (inactive). The GI50 [52] was 54.1 µM (inactive) and the GI50 [53] was 78.2 µM (inactive).
In the case of Cc1nc2ccc(S(=O)(=O)Nc3ccccc3Cl)cc2c(=O)n1NC(=O)CNc1ccccc1Cl, the GI50 [1] is reported as > 100 µM (inactive), the GI50 [2] is reported as greater than 100 µM and the GI50 [3] is reported as > 100 µM (inactive). For the same molecule, the GI50 [5] was > 100 µM (inactive), the GI50 [6] was > 100 µM (inactive) and the GI50 [7] was > 100 µM (inactive). The GI50 [8] was > 100 µM (inactive), the GI50 [9] was > 100 µM (inactive) and the GI50 [10] was > 100 µM (inactive). For the same molecule, the GI50 [11] was > 100 µM (inactive), the GI50 [12] was > 100 µM (inactive) and the GI50 [13] was > 100 µM (inactive). For the same molecule, the GI50 [14] was > 100 µM (inactive), the GI50 [15] was > 100 µM (inactive) and the GI50 [16] was > 100 µM (inactive). For the same molecule, the GI50 [17] was > 100 µM (inactive), the GI50 [18] was > 100 µM (inactive) and the GI50 [19] was > 100 µM (inactive). For the same molecule, the GI50 [20] was > 100 µM (inactive), the GI50 [21] was > 100 µM (inactive) and the GI50 [54] was > 100 µM (inactive). The GI50 [55] was > 100 µM (inactive), the GI50 [22] was > 100 µM (inactive) and the GI50 [23] was > 100 µM (inactive). For the same molecule, the GI50 [24] was > 100 µM (inactive), the GI50 [56] was > 100 µM (inactive) and the GI50 [25] was > 100 µM (inactive). For the same molecule, the GI50 [26] was > 100 µM (inactive), the GI50 [27] was > 100 µM (inactive) and the GI50 [28] was > 100 µM (inactive). The GI50 [29] was > 100 µM (inactive), the GI50 [30] was > 100 µM (inactive) and the GI50 [31] was > 100 µM (inactive). For the same molecule, the GI50 [32] was > 100 µM (inactive), the GI50 [33] was > 100 µM (inactive) and the GI50 [34] was > 100 µM (inactive). For the same molecule, the GI50 [35] was > 100 µM (inactive), the GI50 [36] was > 100 µM (inactive) and the GI50 [37] was > 100 µM (inactive). For the same molecule, the GI50 [39] was > 100 µM (inactive), the GI50 [40] was > 100 µM (inactive) and the GI50 [42] was > 100 µM (inactive). For the same molecule, the GI50 [43] was > 100 µM (inactive), the GI50 [44] was > 100 µM (inactive) and the GI50 [45] was > 100 µM (inactive). The GI50 [46] was > 100 µM (inactive), the GI50 [47] was > 100 µM (inactive) and the GI50 [48] was > 100 µM (inactive). The GI50 [49] was > 100 µM (inactive), the GI50 [57] was > 100 µM (inactive) and the GI50 [58] was > 100 µM (inactive). For the same molecule, the GI50 [50] was > 100 µM (inactive), the GI50 [51] was > 100 µM (inactive) and the GI50 [52] was > 100 µM (inactive). For the same molecule, the GI50 [53] was > 100 µM (inactive).
CCOC(=O)c1nc2ccccc2nc1Nc1ccc(OC)cc1 was tested, and the GI50 [2] was greater than 100 µM, the GI50 [4] was 18.6 µM (inactive) and the GI50 [5] was > 100 µM (inactive). The GI50 [6] was 73.3 µM (inactive), the GI50 [7] was > 100 µM (inactive) and the GI50 [8] was 14.8 µM (inactive). The GI50 [9] was > 100 µM (inactive), the GI50 [10] was 31.4 µM (inactive) and the GI50 [11] was 20.6 µM (inactive). For the same molecule, the GI50 [12] was > 100 µM (inactive), the GI50 [13] was > 100 µM (inactive) and the GI50 [14] was 23.8 µM (inactive). For the same molecule, the GI50 [15] was 73.1 µM (inactive), the GI50 [16] was 32.4 µM (inactive) and the GI50 [17] was 19.7 µM (inactive). For the same molecule, the GI50 [59] was 43.5 µM (inactive), the GI50 [18] was 18.5 µM (inactive) and the GI50 [19] was 19.5 µM (inactive). For the same molecule, the GI50 [20] was > 100 µM (inactive), the GI50 [21] was 15 µM (inactive) and the GI50 [54] was > 100 µM (inactive). The GI50 [55] was 22.5 µM (inactive), the GI50 [22] was > 100 µM (inactive) and the GI50 [23] was > 100 µM (inactive). The GI50 [24] was 25.7 µM (inactive), the GI50 [56] was > 100 µM (inactive) and the GI50 [25] was 41.2 µM (inactive). For the same molecule, the GI50 [26] was > 100 µM (inactive), the GI50 [27] was 93.8 µM (inactive) and the GI50 [28] was 51.6 µM (inactive). For the same molecule, the GI50 [29] was 88.7 µM (inactive), the GI50 [30] was 50.6 µM (inactive) and the GI50 [31] was > 100 µM (inactive). For the same molecule, the GI50 [32] was 24 µM (inactive), the GI50 [33] was 37.9 µM (inactive) and the GI50 [34] was 13.8 µM (inactive). The GI50 [35] was 35.1 µM (inactive), the GI50 [36] was 33.7 µM (inactive) and the GI50 [37] was 42.3 µM (inactive). The GI50 [38] was 17.5 µM (inactive), the GI50 [39] was > 100 µM (inactive) and the GI50 [40] was 54.7 µM (inactive). For the same molecule, the GI50 [41] was 30 µM (inactive), the GI50 [42] was 49.5 µM (inactive) and the GI50 [43] was 34.8 µM (inactive). For the same molecule, the GI50 [44] was > 100 µM (inactive), the GI50 [45] was 37.5 µM (inactive) and the GI50 [46] was 51.2 µM (inactive). The GI50 [47] was 47.8 µM (inactive), the GI50 [48] was 16.5 µM (inactive) and the GI50 [49] was 27.6 µM (inactive). For the same molecule, the GI50 [57] was 22 µM (inactive), the GI50 [58] was > 100 µM (inactive) and the GI50 [50] was 28.5 µM (inactive). For the same molecule, the GI50 [51] was 40 µM (inactive), the GI50 [52] was 54.2 µM (inactive) and the GI50 [53] was 83.8 µM (inactive).
